Legend:
[1] = molecular target: T1, Avi-KRAS G12V (1-169) GppNHp/RAF1 RBD-3xFLAG (52-151) (Homo sapiens, UniProt P01116, G12V); experiment: Raf1-KRAS G12V-GppNHP disruption HTRF assay (Biological Example 1); type: binding
T1 construct: Avi-KRAS G12V (1-169)
In short: (§1)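 Read-out is HTRF signal of the KRAS–RAF1 RBD complex, reported as percentage of activity relative to DMSO (100%). Protein mix and detection reagents each incubated 1 h at room temperature with 700 rpm shaking. Buffer: 50 mM Tris pH 7.5, 100 mM NaCl, 5 mM MgCl2, 0.1% BSA, 0.01% Tween, 10% DMSO.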

[2] = molecular target: T2, Avi-KRAS WT (1-169) GppNHp/RAF1 RBD-3xFLAG (52-151) (Homo sapiens, UniProt P01116); experiment: Raf1-KRAS WT-GppNHP disruption HTRF assay (Biological Example 1); type: binding
T2 construct: Avi-KRAS WT (1-169)
T2 sequence (P01116 1-169 isoform P01116-2): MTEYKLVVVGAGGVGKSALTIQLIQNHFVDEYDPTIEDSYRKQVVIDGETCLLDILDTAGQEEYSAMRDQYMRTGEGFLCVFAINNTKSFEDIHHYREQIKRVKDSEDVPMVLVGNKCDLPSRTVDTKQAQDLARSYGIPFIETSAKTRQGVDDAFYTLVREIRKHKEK
In short: as §1

GP2d cells (KRAS G12D) = experiment: Cell-based pERK HTRF assay in GP2d cell (Biological Example 2); conditions: GP2d, GP2d (KRAS G12D) cells, pERK HTRF
In short: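 Cells grown in DMEM with 10% FBS were exposed to compound for 60 min at 0.25% DMSO, using a 9-point half-log series starting at 1 μM or 100 nM. Lysates were then mixed with d2 and Eu cryptate antibodies for 4–24 h at room temperature, and pERK was read by HTRF.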

SW620 cells (KRAS G12V) = experiment: Cell-based pERK HTRF assay in SW620 cell (Biological Example 4); conditions: Homo sapiens, SW-620, SW620 (KRAS G12V) cells, pERK HTRF
In short: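 SW620 (KRAS G12V) cells seeded at 3×10^4/well in RPMI, 10% FBS, then treated next day for 4 h with a 9-point half-log series from 1 μM top (0.25% DMSO). Lysates analyzed for pERK by HTRF (Eu cryptate/d2 antibodies, 4–24 h at room temperature), excitation 320 nm, emission 615 nm.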

[3] = molecular target: T3, Avi-KRAS G12D (1-169) GppNHp/RAF1 RBD-3xFLAG (52-151) (Homo sapiens, UniProt P01116, G12D); experiment: Raf1-KRAS G12D-GppNHP disruption HTRF assay (Biological Example 1); type: binding
T3 construct: Avi-KRAS G12D (1-169)
T3 sequence (P01116 1-169 isoform P01116-2 G12D): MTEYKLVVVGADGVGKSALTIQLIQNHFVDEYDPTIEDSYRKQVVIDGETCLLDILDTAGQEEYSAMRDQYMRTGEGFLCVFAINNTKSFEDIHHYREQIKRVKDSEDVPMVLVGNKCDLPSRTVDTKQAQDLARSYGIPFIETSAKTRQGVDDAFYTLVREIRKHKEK
In short: as §1

[4] = molecular target: T4, Avi-KRAS G12R (1-169) GppNHp/RAF1 RBD-3xFLAG (52-151) (Homo sapiens, UniProt P01116, G12R); experiment: Raf1-KRAS G12R-GppNHP disruption HTRF assay (Biological Example 1); type: binding
T4 construct: Avi-KRAS G12R (1-169)
T4 sequence (P01116 1-169 isoform P01116-2 G12R): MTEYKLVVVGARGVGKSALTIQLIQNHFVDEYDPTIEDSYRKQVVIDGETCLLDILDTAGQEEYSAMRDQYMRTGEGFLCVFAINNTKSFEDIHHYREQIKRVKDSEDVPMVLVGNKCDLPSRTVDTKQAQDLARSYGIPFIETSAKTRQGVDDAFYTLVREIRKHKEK
In short: as §1

[5] = KRAS G12V, GppNHp-loaded, class symbols
[6] = KRAS WT, GppNHp-loaded, class symbols
[7] = KRAS G12D, GppNHp-loaded, class symbols
[8] = KRAS G12R, GppNHp-loaded, class symbols

T1 sequence (P01116 1-169 isoform P01116-2 G12V): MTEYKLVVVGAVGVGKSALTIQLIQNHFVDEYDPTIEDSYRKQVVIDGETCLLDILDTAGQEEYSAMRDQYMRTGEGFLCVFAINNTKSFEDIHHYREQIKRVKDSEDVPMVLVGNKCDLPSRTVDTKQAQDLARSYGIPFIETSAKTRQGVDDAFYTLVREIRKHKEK

Structure (SMILES) | IC50 [1, 5] [nM] | IC50 [2, 6] [nM] | IC50 (GP2d cells (KRAS G12D); class symbols) [nM] | IC50 (SW620 cells (KRAS G12V); class symbols) [nM] | IC50 [3, 7] [nM] | IC50 [4, 8] [nM] | IC50 ([1]; KRAS G12V-GppNHp/RAF1 RBD HTRF) [nM] | IC50 ([2]; KRAS WT-GppNHp/RAF1 RBD HTRF) [nM] | IC50 (GP2d cells (KRAS G12D)) [nM] | IC50 (SW620 cells (KRAS G12V)) [nM] | IC50 ([3]; KRAS G12D-GppNHp/RAF1 RBD HTRF) [nM] | IC50 ([4]; KRAS G12R-GppNHp/RAF1 RBD HTRF) [nM]
CCN(c1nc(OC[C@@]23CCCN2C[C@H](F)C3)nc2c(F)c(-c3ccc(F)c4sc(N)c(C#N)c34)c(C(F)(F)F)cc12)[C@H]1CCN(C(=O)N2C[C@H]3C[C@@H]2CO3)C1 (atropisomer, axis not shown) [Compound 653] | < 100 | < 100 | < 100 | < 100 | < 100 | < 100 | – | – | – | – | – | –
CCC(=O)N1C[C@@H](N(C)c2nc(OC[C@@]34CCCN3C[C@H](F)C4)nc3c(F)c(-c4ccc(F)c5sc(N)c(C#N)c45)c(C(F)(F)F)cc23)C[C@@H]1C [Compound 435] | – | – | – | – | – | – | 100 to 1000 | 100 to 1000 | < 100 | < 100 | 100 to 1000 | 100 to 1000
CC(=O)N1CC[C@@](C)(N(C)c2nc(OC[C@@]34CCCN3C[C@H](F)C4)nc3c(F)c(-c4ccc(F)c5sc(N)c(C#N)c45)c(C(F)(F)F)cc23)[C@H]1C [Compound 342] | – | – | – | – | – | – | 1000 to 10000 | 100 to 1000 | < 100 | 100 to 1000 | 1000 to 10000 | 1000 to 10000
CC[C@@H]1[C@H](N(C)c2nc(OC[C@@]34CCCN3C[C@H](F)C4)nc3c(F)c(-c4ccc(F)c5sc(N)c(C#N)c45)c(C(F)(F)F)cc23)CCN1C(=O)C1CC1 [Compound 434] | – | – | – | – | – | – | 1000 to 10000 | 100 to 1000 | 100 to 1000 | 100 to 1000 | 1000 to 10000 | 1000 to 10000
CN(Cc1cccnc1)c1nc(OC[C@@]23CCCN2C[C@H](F)C3)nc2c(F)c(-c3ccc(F)c4sc(N)c(C#N)c34)c(C(F)(F)F)cc12 (atropisomer, axis not shown) [Compound 698] | 100 to 1000 | 100 to 1000 | < 100 | < 100 | 100 to 1000 | 100 to 1000 | – | – | – | – | – | –
CCN(c1nc(OC[C@@]23CCCN2C[C@H](F)C3)nc2c(F)c(-c3ccc(F)c4sc(N)c(C#N)c34)c(C(F)(F)F)cc12)[C@H]1CCN(C(=O)N2C[C@@H]3C[C@H]2CO3)C1 (atropisomer, axis not shown) [Compound 654] | < 100 | < 100 | < 100 | < 100 | < 100 | < 100 | – | – | – | – | – | –
CN(C)C(=O)c1cc2n(n1)CCN(c1nc(OC[C@@]34CCCN3C[C@H](F)C4)nc3c(F)c(-c4ccc(F)c5sc(N)c(C#N)c45)c(C(F)(F)F)cc13)CC2 [Compound 426] | – | – | – | – | – | – | 1000 to 10000 | 1000 to 10000 | 100 to 1000 | 100 to 1000 | 1000 to 10000 | 1000 to 10000
CCC(=O)N1CC[C@H](N(CC)c2nc(OC[C@@]34CCCN3C[C@H](F)C4)nc3c(F)c(-c4ccc(F)c5sc(N)c(C#N)c45)c(C(F)(F)F)cc23)C1 [Compound 349] | – | – | – | – | – | – | 100 to 1000 | 100 to 1000 | < 100 | < 100 | < 100 | < 100
CCN(c1nc(OC[C@@]23CCCN2C[C@H](F)C3)nc2c(F)c(-c3ccc(F)c4sc(N)c(C#N)c34)c(C(F)(F)F)cc12)[C@H]1CCN(C(=O)C2CCOCC2)C1 (atropisomer, axis not shown) [Compound 578] | < 100 | < 100 | < 100 | < 100 | < 100 | < 100 | – | – | – | – | – | –
CN(c1nc(OC[C@@]23CCCN2C[C@H](F)C3)nc2c(F)c(-c3ccc(F)c4sc(N)c(C#N)c34)c(C(F)(F)F)cc12)[C@H]1CC(=O)N(C2CC2)C1 (atropisomer, axis not shown) [Compound 616] | < 100 | < 100 | < 100 | < 100 | < 100 | < 100 | – | – | – | – | – | –
CCN(c1nc(OC[C@@]23CCCN2C[C@H](F)C3)nc2c(F)c(-c3ccc(F)c4sc(N)c(C#N)c34)c(C(F)(F)F)cc12)[C@@H]1C[C@@H](C)N(C(=O)OC)C1 (atropisomer, axis not shown) [Compound 526] | – | – | – | – | – | – | 100 to 1000 | 100 to 1000 | < 100 | < 100 | 100 to 1000 | 100 to 1000

Source: patent US20260042764A1, “COMPOSITIONS AND METHODS FOR INHIBITION OF KRAS” (TheRas, Inc., priority 2022, published 2026)
